The results in this text go back to PMC10819767, “An ADAM10 Exosite Inhibitor Is Efficacious in an In Vivo Collagen-Induced Arthritis Model” (Pharmaceuticals, 2024).

A short description of the data set: Pharmacokinetics in plasma and synovial fluid after oral gavage. In kind it is in vivo, Sprague Dawley male rats. The note with it: rat; for Cmax / AUC(0-inf) / AUC(0-t) / Tmax: male, Sprague Dawley; for Cmax: po, 10 mg/kg. As for the experimental part:
Pharmacokinetics of CID 3117694 in Sprague Dawley male rats. The CID 3117694 structure was confirmed using H1 NMR (Figure S1), and it was determined to be >95% pure via HPLC (Figure S2). To determine if CID 3117694 can be used in in vivo RA efficacy model studies, we conducted an in vivo pharmacokinetic (PK) study. CID 3117694 was formulated in 10% DMSO, 40% PEG400, 30% PG, and 20% H2O at 2 mg/mL and administered via oral gavage to Sprague Dawley male rats at 10 mg/kg. Blood and synovial fluid were collected at 15 min, 30 min, 1, 2, 4, 8, and 24 h and quantitated using LC/MS. PK parameters were calculated using WinNonLin 8.3.4 software.
Pharmacokinetics of CID 3117694. All animal studies were conducted in accordance with NSU IACUC guidelines. Study protocol #2021.04.DM2 was approved using NSU IACUC before the commencement of the studies. CID 3117694 was formulated in 10% DMSO, 40% PEG400, 30% PG, and 20% H2O at 2 mg/mL and administered via an intragastric (ig) gavage to six Sprague Dawley male rats at 10 mg/kg. The animals were anesthetized using isoflurane. Blood and synovial fluid were collected at 15 min, 30 min, 1 h, 2 h, 4 h, 8 h, and 24 h after the administration of CID 3117694. Synovial fluid (SF) was collected using a 23-gauge needle connected to a mini peristaltic pump via perfusion tubing. Sterile saline was infused at a constant rate of 100 μL/min^−1. After the infusion of 100 μL of the vehicle (sterile saline), the outflow tubing was connected to the 25-gauge needle to minimize pressure build-up within the joint space. The fluid was infused and withdrawn at a constant rate until a 250 μL basal sample was collected in a 1.5 mL centrifuge tube. Samples were immediately frozen at −20 °C. Blood was collected using a 25 G needle directly from the heart. The samples were prepared for LC-MS/MS analysis using the acetonitrile protein precipitation technique. Briefly, blank plasma and subject samples (plasma and SF samples) were retrieved from the deep freezer and allowed to thaw. The calibration curve standards (10 to 10,000 μg/mL of CID 3117694) and quality control samples were prepared using blank plasma. The thawed samples were vortexed to ensure the complete mixing of the contents. A total of 50 µL of each sample was transferred to the vials, and 200 µL of an Internal Standard (IS, telmisartan) mixed with acetonitrile was added to all the samples and vortexed. Samples were kept on the shaker for 5 min to ensure complete mixing of contents. The samples were centrifuged at 4000 rpm and 20 °C for 10 min, and the supernatant was transferred into auto-injector vials and loaded into the auto-sampler. A total of 5 µL was injected onto the API-4500 Q TRAP LC-MS/MS system. The samples were separated on a Phenomenex, Synergi C18 4.6 mm × 50 mm, 4 µm HPLC column using a 10 mM ammonium acetate + 0.1% Formic acid buffer as solvent A and 100% Acetonitrile as solvent B. PK parameters were quantitated using WinNonLin (Certara, Princeton, NJ, USA).

Where [1] appears, read: synovial fluid, 10 mg/kg oral gavage.

Like-named read-outs stand apart in the source and are kept apart here.

In the case of `COc1cccc(C(=O)NNC(=O)C(=O)Nc2ccc(C)c(Cl)c2)c1` [CID 3117694], the Cmax came out at 6640 ng/mL (plasma, plasma, 10 mg/kg oral gavage, read-out: Cmax); 18.4 µM (plasma, plasma, 10 mg/kg oral gavage, read-out: Cmax, Concentration Plasma); 18.4 µM (plasma, plasma, 10 mg/kg oral, read-out: Cmax in plasma); 307 ng/mL (synovial fluid, synovial fluid (SF), 10 mg/kg oral gavage, read-out: Cmax); 0.849 µM (synovial fluid, synovial fluid, 10 mg/kg oral gavage, read-out: Cmax, Concentration SF); 0.849 µM (synovial fluid, synovial fluid, 10 mg/kg oral, read-out: Cmax in SF). Moreover, the area under the curve AUC(0-inf) was found to be 173000 ng·h/mL (plasma, 10 mg/kg oral gavage) and 1120 ng·h/mL under setting [1]. The AUC(0-t) by setting is: (plasma, 10 mg/kg oral gavage) 33100 ng·h/mL; under setting [1], 1100 ng·h/mL. For the same compound, the Tmax turned out to be 1 h (plasma, 10 mg/kg oral gavage) and 1 h under setting [1]. Besides, the “concentration at the 24 h time point” value (10 mg/kg ig gavage, 24 h) was “below the limit of quantitation (LOQ)”. Further, the “oral bioavailability (in words)” value (10 mg/kg oral) is “orally bioavailable”. In addition, the “time present in the blood at a steady-state concentration” value (10 mg/kg oral) is given as “at least 8 h”.

In general, AUC(0-inf) refers to total exposure, with the tail of the curve extrapolated. As usually defined, the AUC(0-t) is exposure summed from dosing to a finite time, without extrapolation to infinity. In general, Tmax refers to the time from dosing to the highest level.
